Data taken from patent US10829501B2 (BRISTOL-MYERS SQUIBB COMPANY, priority 2016, dated 2020).
Counter-ions that a name gives are not always drawn.

Target: ROCK2 (Homo sapiens, UniProt O75116)
Assay: ROCK2 kinase inhibition assay (LABCHIP 3000 Reader, FITC peptide substrate);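 note: rho kinase reaction read by separating phosphorylated from unphosphorylated peptide on chip, with inhibition of kinase activity computed per concentration across a dose-response series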

Sequence of ROCK2 (O75116 whole entry, species assumed): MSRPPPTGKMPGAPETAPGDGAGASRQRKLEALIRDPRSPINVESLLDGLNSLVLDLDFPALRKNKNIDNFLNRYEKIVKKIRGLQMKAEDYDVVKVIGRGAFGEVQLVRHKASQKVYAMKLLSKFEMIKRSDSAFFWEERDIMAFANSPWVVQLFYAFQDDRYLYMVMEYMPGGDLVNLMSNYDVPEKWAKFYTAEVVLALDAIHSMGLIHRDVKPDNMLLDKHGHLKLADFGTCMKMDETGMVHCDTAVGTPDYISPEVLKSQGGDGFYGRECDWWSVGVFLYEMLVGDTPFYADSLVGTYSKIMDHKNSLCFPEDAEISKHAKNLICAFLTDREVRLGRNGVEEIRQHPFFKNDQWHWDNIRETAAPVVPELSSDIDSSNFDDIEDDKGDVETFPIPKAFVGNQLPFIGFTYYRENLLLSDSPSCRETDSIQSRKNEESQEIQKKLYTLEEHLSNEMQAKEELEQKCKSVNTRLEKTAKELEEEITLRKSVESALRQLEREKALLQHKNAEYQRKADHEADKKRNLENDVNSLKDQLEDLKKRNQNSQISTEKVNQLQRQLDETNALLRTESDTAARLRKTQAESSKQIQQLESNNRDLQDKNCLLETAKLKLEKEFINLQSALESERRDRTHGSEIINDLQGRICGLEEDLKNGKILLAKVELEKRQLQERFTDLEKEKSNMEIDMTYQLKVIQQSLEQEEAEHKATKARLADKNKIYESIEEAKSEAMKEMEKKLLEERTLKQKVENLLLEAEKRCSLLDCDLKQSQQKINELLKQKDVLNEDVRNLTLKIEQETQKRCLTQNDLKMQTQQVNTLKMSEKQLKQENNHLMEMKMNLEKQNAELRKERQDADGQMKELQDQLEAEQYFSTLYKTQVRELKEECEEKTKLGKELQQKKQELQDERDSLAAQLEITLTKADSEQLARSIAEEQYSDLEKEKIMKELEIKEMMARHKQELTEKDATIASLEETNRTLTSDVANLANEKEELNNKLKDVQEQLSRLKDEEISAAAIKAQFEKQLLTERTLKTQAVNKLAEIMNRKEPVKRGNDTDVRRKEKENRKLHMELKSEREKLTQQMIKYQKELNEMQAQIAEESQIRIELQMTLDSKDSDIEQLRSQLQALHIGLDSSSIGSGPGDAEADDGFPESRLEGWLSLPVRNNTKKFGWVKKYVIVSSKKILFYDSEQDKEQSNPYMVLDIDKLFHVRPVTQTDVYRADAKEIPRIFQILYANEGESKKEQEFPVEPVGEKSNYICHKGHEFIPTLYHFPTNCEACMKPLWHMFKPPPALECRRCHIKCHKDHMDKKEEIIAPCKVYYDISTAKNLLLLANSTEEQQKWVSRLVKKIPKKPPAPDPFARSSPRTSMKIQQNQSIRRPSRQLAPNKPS

| IC50 | SMILES |
| --- | --- |
| 0.005 to 0.05 µM | NC(=O)c1cccnc1O[C@H]1CC2(C[C@H](NC(=O)c3cnn4cc(OCCn5ccnc5)ccc34)C2)C1 (stereo partly drawn) [Example 120, 6-(2-(1H-imidazol-1-yl)ethoxy)-N-((aR)-6-((3-carbamoylpyridin-2-yl)oxy)spiro[3.3]heptan-2-yl)pyrazolo[1,5-a]pyridine-3-carboxamdie, trifluoroacetate] |
| 0.005 to 0.05 µM | COCCOCCOc1ccc2c(C(=O)N[C@H]3CC4(C3)C[C@H](Oc3ncccc3C(N)=O)C4)cnn2c1 (stereo partly drawn) [Example 121, N-((aR)-6-((3-carbamoylpyridin-2-yl)oxy)spiro[3.3]heptan-2-yl)-6-(2-(2-methoxyethoxy)ethoxy)pyrazolo [1,5-a]pyridine-3-carboxamide, trifluoroacetate] |
| 0.005 to 0.05 µM | NC(=O)c1cccnc1O[C@H]1CC2(C[C@H](NC(=O)c3cnn4cc(OCCCN5CCCC5=O)ccc34)C2)C1 (stereo partly drawn) [Example 124, N-((aR)-6-((3-carbamoylpyridin-2-yl)oxy)spiro[3.3]heptan-2-yl)-6-(3-(2-oxopyrrolidin-1-yl)propoxy) pyrazolo[1,5-a]pyridine-3-carboxamide, trifluoroacetate] |
| < 0.005 µM | NC(=O)c1cccnc1O[C@H]1CC2(C[C@H](NC(=O)c3cnn4cc(OCC[C@H]5COC(=O)N5)ccc34)C2)C1 (stereo partly drawn) [Example 126, N-((aR)-6-((3-carbamoylpyridin-2-yl)oxy)spiro[3.3]heptan-2-yl)-6-(2-((S)-2-oxoxazolidin-4-yl)ethoxy) pyrazolo[1,5-a]pyridine-3-carboxamdie, trifluoroacetate] |
| 0.005 to 0.05 µM | CC(C)(O)COc1ccc2c(C(=O)N[C@H]3CC4(C3)C[C@H](Oc3ncccc3C(N)=O)C4)nn(CC(C)(C)O)c2c1 (stereo partly drawn) [Example 127, N-((aR)-6-((3-carbamoylpyridin-2-yl)oxy)spiro[3.3]heptan-2-yl)-6-(2-hydroxy-2-methylpropoxy)-1-(2-hydroxy-2-methylpropyl)-1H-indazole-3-carboxamide, trifluoroacetate] |
| 0.005 to 0.05 µM | Cc1ncsc1CCOc1ccc2c(C(=O)N[C@H]3CC4(C3)C[C@H](Oc3ncccc3C(N)=O)C4)cnn2c1 (stereo partly drawn) [Example 128, N-((aR)-6-((3-carbamoylpyridin-2-yl)oxy)spiro[3.3]heptan-2-yl)-6-(2-(4-methylthiazol-5-yl)ethoxy) pyrazolo[1,5-a]pyridine-3-carboxamide, trifluoroacetate] |
| 0.25 to 2.5 µM | NC(=O)c1cccnc1O[C@H]1CC2(C[C@H](NC(=O)c3csc(-c4ccccn4)n3)C2)C1 (stereo partly drawn) [Example 130, N-((aR)-6-((3-carbamoylpyridin-2-yl)oxy)spiro [3.3]heptan-2-yl)-2-(pyridin-2-yl)thiazole-4-carboxamide, bis-trifluoroacetate] |
| 0.005 to 0.05 µM | CN(c1ccccc1)S(=O)(=O)c1cccc(C(=O)N[C@H]2CC3(C2)C[C@H](Oc2ncccc2C(N)=O)C3)c1 (stereo partly drawn) [Example 131, 2-(((aR)-6-(3-(N-methyl-N-phenylsulfamoyl)benzamido)spiro[3.3]heptan-2-yl)oxy) nicotinamide, trifluoroacetate] |
| 0.05 to 0.25 µM | NC(=O)c1cccnc1O[C@H]1CC2(C[C@H](NC(=O)c3cccc(-n4cccn4)c3)C2)C1 (stereo partly drawn) [Example 134, 2-(((aR)-6-(3-(1H-pyrazol-1-yl)benzamido)spiro[3.3]heptan-2-yl)oxy) nicotinamide, trifluoroacetate] |
| 0.25 to 2.5 µM | Cc1nc(-c2cccnc2)sc1C(=O)N[C@H]1CC2(C1)C[C@H](Oc1ncccc1C(N)=O)C2 (stereo partly drawn) [Example 135, N-((aR)-6-((3-carbamoylpyridin-2-yl)oxy)spiro [3.3]heptan-2-yl)-4-methyl-2-(pyridin-3-yl)thiazole-5-carboxamide, bis-trifluoroacetate] |
| 0.25 to 2.5 µM | COc1ccc(-c2nc(C(=O)N[C@H]3CC4(C3)C[C@H](Oc3ncccc3C(N)=O)C4)cs2)cc1 (stereo partly drawn) [Example 136, N-((aR)-6-((3-carbamoylpyridin-2-yl)oxy)spiro[3.3]heptan-2-yl)-2-(4-methoxyphenyl) thiazole-4-carboxamide, trifluoroacetate] |
| 0.25 to 2.5 µM | CC(C)NS(=O)(=O)c1ccccc1C(=O)N[C@H]1CC2(C1)C[C@H](Oc1ncccc1C(N)=O)C2 (stereo partly drawn) [Example 138, 2-(((aR)-6-(2-(N-isopropylsulfamoyl)benzamido)spiro[3.3]heptan-2-yl)oxy)nicotinamide, trifluoroacetate] |
| 0.25 to 2.5 µM | NC(=O)c1cccnc1O[C@H]1CC2(C[C@H](NC(=O)c3c(C(F)(F)F)nc4ccc(Cl)cn34)C2)C1 (stereo partly drawn) [Example 139, N-((aR)-6-((3-carbamoylpyridin-2-yl)oxy)spiro[3.3]heptan-2-yl)-6-chloro-2-(trifluoromethyl) imidazo[1,2-a]pyridine-3-carboxamide, trifluoroacetate] |
| 0.25 to 2.5 µM | NC(=O)c1cccnc1O[C@H]1CC2(C[C@H](NC(=O)c3ccccc3-c3nc4ccccc4[nH]3)C2)C1 (stereo partly drawn) [Example 140, 2-(((aR)-6-(2-(1H-benzo[d]imidazol-2-yl)benamido)spiro [3.3]heptan-2-yl)oxy) nicotinamide, trifluoroacetate] |
| 0.25 to 2.5 µM | NC(=O)c1cccnc1O[C@H]1CC2(C[C@H](NC(=O)c3cccc(Cn4ccnc4)c3)C2)C1 (stereo partly drawn) [Example 141, 2-(((aR)-6-(3-((1H-imidazol-1-yl)methyl)benzamido)spiro[3.3]heptan-2-yl)oxy) nicotinamide, trifluoroacetate] |
| 0.05 to 0.25 µM | Cc1nnnn1-c1cccc(C(=O)N[C@H]2CC3(C2)C[C@H](Oc2ncccc2C(N)=O)C3)c1 (stereo partly drawn) [Example 142, 2-(((aR)-6-(3-(5-methyl-1H-tetrazol-1-yl)benzamido)spiro[3.3]heptan-2-yl)oxy) nicotinamide, trifluoroacetate] |
| 0.25 to 2.5 µM | COc1ccc(CCc2ccccc2C(=O)N[C@H]2CC3(C2)C[C@H](Oc2ncccc2C(N)=O)C3)cc1 (stereo partly drawn) [Example 143, 2-(((aR)-6-(2-(4-methoxyphenethyl)benzamido)spiro[3.3]heptan-2-yl)oxy)nicotinamide, trifluoroacetate] |
| 0.25 to 2.5 µM | NC(=O)c1cccnc1O[C@H]1CC2(C[C@H](NC(=O)c3nc(-c4nc5ccccc5s4)cs3)C2)C1 (stereo partly drawn) [Example 144, 4-(benzo[d]thiazol-2-yl)-N-((aR)-6-((3-carbamoylpyridin-2-yl)oxy)spiro [3.3]heptan-2-yl)thiazole-2-carboxamide, trifluoroacetate] |
| 0.25 to 2.5 µM | NC(=O)c1cccnc1O[C@H]1CC2(C[C@H](NC(=O)c3nc(-c4ccccn4)cs3)C2)C1 (stereo partly drawn) [Example 145, N-((aR)-6-((3-carbamoylpyridin-2-yl)oxy)spiro[3.3]heptan-2-yl)-4-(pyridin-2-yl) thiazole-2-carboxamide, trifluoroacetate] |
| 0.05 to 0.25 µM | Cn1c(-c2nc(C(=O)N[C@H]3CC4(C3)C[C@H](Oc3ncccc3C(N)=O)C4)cs2)nc2ccccc21 (stereo partly drawn) [Example 146, N-((aR)-6-((3-carbamoylpyridin-2-yl)oxy)spiro[3.3]heptan-2-yl)-2-(1-methyl-1H-benzo[d]imidazol-2-yl)thiazole-4-carboxamide, trifluoroacetate] |
| 0.25 to 2.5 µM | Cc1noc(-c2cccc(C(=O)N[C@H]3CC4(C3)C[C@H](Oc3ncccc3C(N)=O)C4)c2)n1 (stereo partly drawn) [Example 147, 2-(((aR)-6-(3-(3-methyl-1,2,4-oxadiazol-5-yl)benzamido)spiro[3.3]heptan-2-yl)oxy) nicotinamide, trifluoroacetate] |
| 0.05 to 0.25 µM | NC(=O)c1cccnc1O[C@H]1CC2(C[C@H](NC(=O)c3cc(S(N)(=O)=O)c(F)cc3Cl)C2)C1 (stereo partly drawn) [Example 148, 2-(((aR)-6-(2-chloro-4-fluoro-5-sulfamoylbenzamido)spiro[3.3]heptan-2-yl)oxy) nicotinamide, trifluoroacetate] |
| 0.05 to 0.25 µM | NC(=O)c1cccnc1O[C@H]1CC2(C[C@H](NC(=O)c3ccc4c(c3)S(=O)(=O)NC4=O)C2)C1 (stereo partly drawn) [Example 149, N-((aR)-6-((3-carbamoylpyridin-2-yl)oxy)spiro[3.3]heptan-2-yl)-3-oxo-2,3-dihydrobenzo[d] isothiazole-6-carboxamide 1,1-dioxide, trifluoroacetate] |
| 0.005 to 0.05 µM | NC(=O)c1cccnc1O[C@H]1CC2(C[C@H](NC(=O)c3ccc(F)c(S(N)(=O)=O)c3)C2)C1 (stereo partly drawn) [Example 150, 2-(((aR)-6-(4-fluoro-3-sulfamoylbenzamido)spiro[3.3]heptan-2-yl)oxy) nicotinamide, trifluoroacetate] |
| 0.25 to 2.5 µM | NC(=O)c1cccnc1O[C@H]1CC2(C[C@H](NC(=O)c3ccc4[nH]c(=O)c(=O)[nH]c4c3)C2)C1 (stereo partly drawn) [Example 151, N-((aR)-6-((3-carbamoylpyridin-2-yl)oxy)spiro[3.3]heptan-2-yl)-2,3-dioxo-1,2,3,4-tetrahydroquinoxaline-6-carboxamide, trifluoroacetate] |
| 0.005 to 0.05 µM | NC(=O)c1cccnc1O[C@H]1CC2(C[C@H](NC(=O)c3ccc(Cl)c(S(N)(=O)=O)c3)C2)C1 (stereo partly drawn) [Example 152, 2-(((aR)-6-(4-chloro-3-sulfamoylbenzamido)spiro[3.3]heptan-2-yl)oxy) nicotinamide, trifluoroacetate] |
| 0.25 to 2.5 µM | NC(=O)c1cccnc1O[C@H]1CC2(C[C@H](NC(=O)c3cn4cc(Cl)ccc4n3)C2)C1 (stereo partly drawn) [Example 153, N-((aR)-6-((3-carbamoylpyridin-2-yl)oxy)spiro[3.3]heptan-2-yl)-6-chloroimidazo[1,2-a]pyridine-2-carboxamide, trifluoroacetate] |

| SMILES | IC50 |
| --- | --- |
| NC(=O)c1cccnc1O[C@H]1CC2(C[C@H](NC(=O)c3cnn4cc(OCCCC(F)(F)F)ccc34)C2)C1 (stereo partly drawn) [Example 122, N-((aR)-6-((3-carbamoylpyridin-2-yl)oxy)spiro[3.3]heptan-2-yl)-6-(4,4,4-trifluorobutoxy) pyrazolo[1,5-a]pyridine-3-carboxamide, trifluoroacetate] | 0.005 to 0.05 µM |
| NC(=O)c1cccnc1O[C@H]1CC2(C[C@H](NC(=O)c3cnn4cc(OCCOC(F)(F)F)ccc34)C2)C1 (stereo partly drawn) [Example 125, N-((aR)-6-((3-carbamoylpyridin-2-yl)oxy)spiro[3.3]heptan-2-yl)-6-(2-(trifluoromethoxy)ethoxy) pyrazolo[1,5-a] pyridine-3-carboxamide, t rifluoroacetate] | 0.005 to 0.05 µM |
| NC(=O)c1cccnc1O[C@H]1CC2(C[C@H](NC(=O)c3nn(Cc4ccccc4)c4ccccc34)C2)C1 (stereo partly drawn) [Example 132, 1-benzyl-N-((aR)-6-((3-carbamoylpyridin-2-yl)oxy)spiro[3.3]heptan-2-yl)-1H-indazole-3-carboxamide, trifluoroacetate] | 0.005 to 0.05 µM |
